Reference: doi:10.1101/2025.10.09.681351v1 (biorxiv, 2025)

Tests used:
[1] = molecular target: recombinant human EPAS1 (Homo sapiens, UniProt Q99814); test: isothermal titration calorimetry; type: binding
[2] = molecular target: EPAS1 (mouse recombinant EPAS1; HIF-2α) (Mus musculus, UniProt P97481); test: isothermal titration calorimetry; type: binding
EPAS1 (mouse recombinant EPAS1; HIF-2α), sequence (P97481 whole entry): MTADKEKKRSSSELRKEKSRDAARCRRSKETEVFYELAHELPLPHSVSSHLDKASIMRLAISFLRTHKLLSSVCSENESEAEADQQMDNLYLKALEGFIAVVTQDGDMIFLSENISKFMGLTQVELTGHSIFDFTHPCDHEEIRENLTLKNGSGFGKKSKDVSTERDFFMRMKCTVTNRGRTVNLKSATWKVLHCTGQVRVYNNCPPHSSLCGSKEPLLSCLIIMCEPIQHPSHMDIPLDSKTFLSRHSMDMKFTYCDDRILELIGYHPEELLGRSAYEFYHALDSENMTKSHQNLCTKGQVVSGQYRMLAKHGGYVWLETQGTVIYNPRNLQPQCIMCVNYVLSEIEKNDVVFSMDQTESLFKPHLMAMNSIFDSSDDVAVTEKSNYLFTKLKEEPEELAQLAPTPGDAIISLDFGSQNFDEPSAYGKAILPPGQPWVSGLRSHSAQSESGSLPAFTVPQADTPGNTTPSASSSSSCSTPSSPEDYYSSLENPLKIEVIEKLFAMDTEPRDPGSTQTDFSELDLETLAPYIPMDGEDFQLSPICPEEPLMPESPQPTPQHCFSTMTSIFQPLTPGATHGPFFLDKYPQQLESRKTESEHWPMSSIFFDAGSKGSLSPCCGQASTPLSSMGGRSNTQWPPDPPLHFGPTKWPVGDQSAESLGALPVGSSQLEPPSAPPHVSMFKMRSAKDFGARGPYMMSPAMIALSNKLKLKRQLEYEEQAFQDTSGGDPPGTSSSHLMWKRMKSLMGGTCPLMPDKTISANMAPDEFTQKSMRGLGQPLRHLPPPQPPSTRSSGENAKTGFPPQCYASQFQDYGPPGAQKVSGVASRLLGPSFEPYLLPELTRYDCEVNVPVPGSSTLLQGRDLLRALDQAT

recombinant human EPAS1, sequence (Q99814 whole entry): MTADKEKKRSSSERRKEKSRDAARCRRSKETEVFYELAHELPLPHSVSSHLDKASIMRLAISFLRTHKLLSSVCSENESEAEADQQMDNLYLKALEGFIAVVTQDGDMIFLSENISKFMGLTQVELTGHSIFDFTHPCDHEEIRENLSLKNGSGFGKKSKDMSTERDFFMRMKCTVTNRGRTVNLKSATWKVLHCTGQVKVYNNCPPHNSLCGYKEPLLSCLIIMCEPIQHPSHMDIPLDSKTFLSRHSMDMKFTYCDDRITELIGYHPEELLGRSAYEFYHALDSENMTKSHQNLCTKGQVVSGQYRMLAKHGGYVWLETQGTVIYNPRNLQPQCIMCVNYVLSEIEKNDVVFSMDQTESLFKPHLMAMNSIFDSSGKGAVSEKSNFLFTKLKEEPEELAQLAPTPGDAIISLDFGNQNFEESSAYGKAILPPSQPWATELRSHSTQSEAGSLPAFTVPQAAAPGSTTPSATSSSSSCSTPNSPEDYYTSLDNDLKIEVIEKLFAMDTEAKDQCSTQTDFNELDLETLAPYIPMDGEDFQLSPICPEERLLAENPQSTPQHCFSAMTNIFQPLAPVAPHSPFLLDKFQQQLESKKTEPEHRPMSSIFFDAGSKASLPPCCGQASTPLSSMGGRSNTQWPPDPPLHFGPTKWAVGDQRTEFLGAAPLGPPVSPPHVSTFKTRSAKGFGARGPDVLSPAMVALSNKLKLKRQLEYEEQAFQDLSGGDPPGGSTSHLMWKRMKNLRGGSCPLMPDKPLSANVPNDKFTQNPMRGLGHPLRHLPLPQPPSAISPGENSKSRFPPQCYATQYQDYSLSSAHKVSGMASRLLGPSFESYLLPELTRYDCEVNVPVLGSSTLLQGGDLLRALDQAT

CCCCCCCCC/C=C\C(=O)O [BDSF]
Kd [1]: 5.3 µM | Kd [2]: 4.3 µM
